Source: article PMC8963254, “Effects of Lysine N-ζ-Methylation in Ultrashort Tetrabasic Lipopeptides (UTBLPs) on the Potentiation of Rifampicin, Novobiocin, and Niclosamide in Gram-Negative Bacteria” (Antibiotics, 2022)
≈ marks a conversion by molar mass, not a printed value. Where “and” joins values, the source holds several entries; their conditions need not be identical. Equal entries are not always repeated. Where two headings read alike, the source gives them in different places.

How the values were obtained:
[1] = system: P. aeruginosa PA259-96196; assay: microbe, parasite or virus in culture; format: cell-based, Pseudomonas aeruginosa; details: Pseudomonas aeruginosa, PA25996196, 18 h; P. aeruginosa 259-96196; read-out: MICs of various antibiotics
Method: (§1) The in vitro antibacterial activity of the UTBLPs was assessed against wild-type and clinically isolated bacterial strains. To obtain the MIC of the compounds, the microbroth dilution susceptibility assay was performed according to the Clinical and Laboratory Standards Institute (CLSI, Wayne, PA, USA) guidelines and as previously described. Briefly, the compounds at varying concentrations were incubated with bacterial inoculum (5 × 10^5 CFU/mL final concentration) at 37 °C for 18 h. Growth in the form of turbidity was confirmed using an EMax Plus microplate reader (Molecular Devices, San Jose, CA, USA) at 590 nm.

[2] = system: P. aeruginosa PA262-101856; assay: microbe, parasite or virus in culture; format: cell-based, Pseudomonas aeruginosa; details: Pseudomonas aeruginosa, PA262101856, 18 h; P. aeruginosa 262-101856; read-out: MICs of various antibiotics
Method: as §1

E. coli 94474 [3] = assay: microbe, parasite or virus in culture; format: cell-based, Escherichia coli; details: Escherichia coli, 18 h; E. coli 94474 (mcr-1 +); read-out: MICs of various antibiotics
Method: as §1

E. coli 94393 [4] = assay: microbe, parasite or virus in culture; format: cell-based, Escherichia coli; details: Escherichia coli, 18 h; E. coli 94393 (mcr-1 +); read-out: MICs of various antibiotics
Method: as §1

A. baumannii AB027 [5] = assay: microbe, parasite or virus in culture; format: cell-based, Acinetobacter baumannii; details: Acinetobacter baumannii, 18 h; A. baumannii AB027; read-out: MICs of various antibiotics
Method: as §1

K. pneumoniae 113250 [6] = assay: microbe, parasite or virus in culture; format: cell-based, Klebsiella pneumoniae; details: Klebsiella pneumoniae, 18 h; K. pneumoniae 113250; read-out: MICs of various antibiotics
Method: as §1

E. cloacae 118564 [7] = assay: microbe, parasite or virus in culture; format: cell-based, Enterobacter cloacae; details: Enterobacter cloacae, 18 h; E. cloacae 118564; read-out: MICs of various antibiotics
Method: as §1

A. baumannii AB92247 = assay: microbe, parasite or virus in culture; format: cell-based, Acinetobacter baumannii; details: Acinetobacter baumannii, AB92247, 18 h; A. baumannii 92247; read-out: MICs of various antibiotics
Method: as §1

P. aeruginosa PAO1 = format: cell-based, Pseudomonas aeruginosa
Method: (§2) The synergy of the UTBLPs with various antibiotics was assessed using checkerboard assay as previously described. Briefly, the combination of antibiotic and OMP at varying concentrations were incubated with bacterial inoculum (5 × 10^5 CFU/mL final concentration) at 37 °C for 18 h. Growth in the form of turbidity was confirmed using an EMax Plus microplate reader (Molecular Devices, Union City, CA, USA) at 590 nm. Fractional inhibitory concentration index (FICI) was used to evaluate the interaction between the antibiotic and the OMP. FICI is the sum of the FIC of the antibiotic and the FIC of the OMP. The FIC value is calculated by dividing the MIC of the agents in combination by the MIC of the agent alone. FICI ≤ 0.5 is synergistic, 0.5 < x ≤ 4 is additive, and >4 is antagonistic.

[8] = system: P. aeruginosa PA259-96196; format: cell-based, Pseudomonas aeruginosa; details: rifampicin alone
Method: as §2

[9] = system: P. aeruginosa PA262-101856; format: cell-based, Pseudomonas aeruginosa; details: rifampicin alone
Method: as §2

K. pneumoniae 113250 [10] = format: cell-based, Klebsiella pneumoniae; details: rifampicin alone
Method: as §2

E. coli 94474 [11] = format: cell-based, Escherichia coli; details: rifampicin alone
Method: as §2

E. coli 94393 [12] = format: cell-based, Escherichia coli; details: rifampicin alone
Method: as §2

E. coli ATCC 25922 = format: cell-based, Escherichia coli; details: rifampicin alone
Method: as §2

E. cloacae 118564 [13] = format: cell-based, Enterobacter cloacae; details: rifampicin alone
Method: as §2

A. baumannii AB027 [14] = format: cell-based, Acinetobacter baumannii; details: rifampicin alone
Method: as §2

A. baumannii 92247 = format: cell-based, Acinetobacter baumannii; details: rifampicin alone
Method: as §2

A. baumannii ATCC 17978 = format: cell-based, Acinetobacter baumannii
Method: as §2

MSSE 81388 = format: cell-based, Staphylococcus epidermidis; details: chloramphenicol alone
Method: as §2

MRSE 61589 = format: cell-based, Staphylococcus epidermidis; details: chloramphenicol alone
Method: as §2

E. faecium ATCC 27270 = format: cell-based, Enterococcus faecium; details: chloramphenicol alone
Method: as §2

E. faecalis ATCC 29212 = format: cell-based, Enterococcus faecalis; details: chloramphenicol alone
Method: as §2

S. aureus ATCC 29213 = format: cell-based, Staphylococcus aureus; details: chloramphenicol alone
Method: as §2

MRSA ATCC 33592 = format: cell-based, Staphylococcus aureus; details: chloramphenicol alone
Method: as §2

Row | Compound | MIC [1] [µg/mL] | MIC [2] [µg/mL] | MIC (E. coli 94474 [3]) [µg/mL] | MIC (E. coli 94393 [4]) [µg/mL] | MIC (A. baumannii AB027 [5]) [µg/mL] | MIC (K. pneumoniae 113250 [6]) [µg/mL] | MIC (E. cloacae 118564 [7]) [µg/mL] | further results
1 | CO/N=C(\C(=O)N[C@@H]1C(=O)N2C(C(=O)O)=C(CSc3nc(=O)c(=O)[nH]n3C)CS[C@H]12)c1csc(N)n1 [CTR, ceftriaxone] | > 64 | 64 (≈ 115 µM) |  |  |  |  |  | 
2 | COc1c(N2C[C@@H]3CCCN[C@@H]3C2)c(F)cc2c(=O)c(C(=O)O)cn(C3CC3)c12 [MOX, moxifloxacin] | > 16 | > 16 | 16 (≈ 39.9 µM) | 1 (≈ 2.49 µM) | 8 (≈ 19.9 µM) | ≤ 0.06 | 0.12 (≈ 0.299 µM) | 
3 | CC(C)(O/N=C(\C(=O)N[C@@H]1C(=O)N2C(C(=O)[O-])=C(C[n+]3ccccc3)CS[C@H]12)c1csc(N)n1)C(=O)O [CAZ, ceftazidime] | 512 (≈ 937 µM) | 16 (≈ 29.3 µM) | 0.5 (≈ 0.915 µM) | ≤ 0.25 |  | 0.5 (≈ 0.915 µM) | 0.5 (≈ 0.915 µM) | 
4 | CN(C)[C@@H]1C(O)=C(C(N)=O)C(=O)[C@@]2(O)C(O)=C3C(=O)c4c(O)c(NC(=O)CN5CCCC5)cc(F)c4C[C@H]3C[C@@H]12 [ERC, eravacycline] | 8 (≈ 14.3 µM) | 8 (≈ 14.3 µM) | 1 (≈ 1.79 µM) | 0.5 (≈ 0.895 µM) | 0.5 (≈ 0.895 µM) | 1 (≈ 1.79 µM) |  | 
5 | CN(C)c1ccc(O)c2c1C[C@H]1C[C@H]3[C@H](N(C)C)C(O)=C(C(N)=O)C(=O)[C@@]3(O)C(O)=C1C2=O [MIN, minocycline] | 32 (≈ 69.9 µM) | 64 (≈ 140 µM) | 64 (≈ 140 µM) | 2 (≈ 4.37 µM) | 0.25 (≈ 0.546 µM) | 2 (≈ 4.37 µM) |  | MIC (A. baumannii AB92247): 0.125 µg/mL (≈ 0.273 µM)
6 | C[C@H]1c2cccc(O)c2C(=O)C2=C(O)[C@]3(O)C(=O)C(C(N)=O)=C(O)[C@@H](N(C)C)[C@@H]3[C@@H](O)[C@@H]21 [DOX, doxycycline] | 32 (≈ 72 µM) | 1020 (≈ 2300 µM) | > 32 | 4 (≈ 9 µM) |  | 2 (≈ 4.5 µM) | 4 (≈ 9 µM) | 
7 | C[C@@H](O)[C@H]1C(=O)N2C(C(=O)O)=C(S[C@@H]3CN[C@H](CNS(N)(=O)=O)C3)[C@H](C)[C@H]12 [DOR, doripenem] | > 1020 | 16 (≈ 38 µM) |  |  |  |  |  | 
8 | CO[C@H]1/C=C/O[C@@]2(C)Oc3c(C)c(O)c4c(O)c(c(/C=N/N5CCN(C)CC5)c(O)c4c3C2=O)NC(=O)/C(C)=C\C=C\[C@H](C)[C@H](O)[C@@H](C)[C@@H](O)[C@@H](C)[C@H](OC(C)=O)[C@@H]1C [Rifampicin, rifampicin] |  |  |  |  |  |  |  | MICantibiotic (P. aeruginosa PAO1; rifampicin alone): 16 µg/mL and 8 µg/mL; MICantibiotic [8]: 16 µg/mL; MICantibiotic [9]: 512 µg/mL and 1024 µg/mL; MICantibiotic (K. pneumoniae 113250 [10]): 16 µg/mL and 8 µg/mL; MICantibiotic (E. coli 94474 [11]): 4 µg/mL and 8 µg/mL; MICantibiotic (E. coli 94393 [12]): 4 µg/mL; MICantibiotic (E. coli ATCC 25922): 4 µg/mL and 2 µg/mL; MICantibiotic (E. cloacae 118564 [13]): 8 µg/mL; MICantibiotic (A. baumannii AB027 [14]): 1 µg/mL; MICantibiotic (A. baumannii 92247): 1 µg/mL and 2 µg/mL; MICantibiotic (A. baumannii ATCC 17978; rifampicin alone): 1 µg/mL and 2 µg/mL
9 | O=C(N[C@H](CO)[C@H](O)c1ccc([N+](=O)[O-])cc1)C(Cl)Cl [Chloramphenicol, chloramphenicol, reference compound] | 1020 (≈ 3170 µM) | 2050 (≈ 6340 µM) | 4 (≈ 12.4 µM) | 4 (≈ 12.4 µM) | 128 (≈ 396 µM) | 4 (≈ 12.4 µM) |  | MICantibiotic (P. aeruginosa PAO1; chloramphenicol alone): 32 µg/mL and 16 µg/mL; MICchloramphenicol (MSSE 81388): 4 µg/mL and 8 µg/mL; MICchloramphenicol (MRSE 61589): 8 µg/mL and 16 µg/mL; MICchloramphenicol (E. faecium ATCC 27270): 8 µg/mL and 4 µg/mL; MICchloramphenicol (E. faecalis ATCC 29212): 4 µg/mL and 8 µg/mL; MICantibiotic (A. baumannii ATCC 17978; chloramphenicol alone): 128 µg/mL and 64 µg/mL; MICchloramphenicol (S. aureus ATCC 29213): 8 µg/mL and 16 µg/mL; MICchloramphenicol (MRSA ATCC 33592): 64 µg/mL
10 | NC[C@H]1O[C@H](O[C@H]2[C@H](O)[C@@H](O[C@H]3O[C@H](CO)[C@@H](O)[C@H](N)[C@H]3O)[C@H](N)C[C@@H]2N)[C@H](N)C[C@@H]1O [TOB, tobramycin] | 256 (≈ 548 µM) | 1020 (≈ 2190 µM) | 32 (≈ 68.4 µM) | ≤ 0.5 |  | ≤ 0.5 | 1 (≈ 2.14 µM) | 
